The text below walks through data of US20250381143A1, “A SOLID PHARMACEUTICAL COMPOSITION” (ADLAI NORTYE BIOPHARMA CO., LTD., priority 2021, published 2025).

This data set is described as follows: Biopharmaceutical Classification System class. It is filed as physicochemical. The source says:
The present disclosure relates to a quality controllable solid dosage form and a process for its preparation, wherein the solid dosage form comprises a compound of formula 1 4-{(1S)-1-[({3-(difluoromethyl)-1-methyl-5-[3-(trifluoromethyl)phenoxy]-4-1H-pyrazolyl} carbonyl)amino]ethyl}benzoic acid (compound AN0025) and optionally at least one pharmaceutically acceptable carrier. […] The inventor unexpectedly found in the experiment that AN0025 tablets prepared by different processes can show good uniformity in in vitro dissolution experiments, and AN0025 tablets prepared with different API particle sizes have similar in vitro dissolution behavior and in vivo exposure.

Take `C[C@H](NC(=O)c1c(C(F)F)nn(C)c1Oc1cccc(C(F)(F)F)c1)c1ccc(C(=O)O)cc1` [AN0025, 4-{(1S)-1-[({3-(difluoromethyl)-1-methyl-5-[3-(trifluoromethyl)phenoxy]-4-1H-pyrazolyl}carbonyl)amino]ethyl}benzoic acid]: the “Biopharmaceutical Classification System class” value is “class IV”. The solubility entry (as per BCS class) is recorded as “low solubility”.
